Patent US6506791B2, “Method of treatment of protozoan infections in fish” (Jacksonville State University, priority 2000, dated 2003)

Experiments:
[1] = test system: Ick theronts, both free-swimming tomites and non-ruptured cysts; assay: Direct dosing of Ick parasites with Phloxine B, LIGHT EXPERIMENT (ambient light, lab); format: cell-based, Ichthyophthirius multifiliis
Protocol: (§1) An in vivo study was conducted involving the direct dosing of Ick parasites with Phloxine B. 1 μl of Ick theronts, both free-swimming tomites and non-ruptured cysts, and 9 μl of a Phloxine solution containing either 1000, 100, 10, 1 and 0 ppm of Phloxine B were placed into 100×15 mm tri-plate petri dishes providing 3 replicates for each treatment. 1 set of the plates was left exposed to ambient light (6 mE m^−2s^−1) for 5 hr (LIGHT EXPERIMENT), while the other set was kept in the dark for 4 hr then exposed to ambient light for 1 hr (DARK EXPERIMENT). Percent mortality was assessed, then both light and dark plates received a second dose of Phloxine B at the same concentration as before and treated in the same manner.

[2] = test system: Ick theronts, both free-swimming tomites and non-ruptured cysts; assay: Direct dosing of Ick parasites with Phloxine B, DARK EXPERIMENT (lab conditions); format: cell-based, Ichthyophthirius multifiliis
Protocol: as §1

Ick [3] = assay: LIGHT EXPERIMENT under greenhouse conditions (effect of light intensity); format: cell-based, Ichthyophthirius multifiliis
Protocol: as §1
An experiment was designed to test the effect of light intensity on the effectiveness of Phloxine B treatment of Ick. The previous experiments described in Examples 1 and 2 were conducted in the lab. The ambient light intensity in the lab was very low, 6 μmol m^−2s^−1. An experiment was conducted as following the protocol of Example 1, except the experiment was conducted in a greenhouse to better mimic natural light conditions.

Ick [4] = assay: Light and dark experiment with doubled exposure times (Example 2); format: cell-based, Ichthyophthirius multifiliis; conditions: 8 hr dark then 2 hr light or 10 hr light
Protocol: as §1
A light and dark experiment were set up following the protocol in Example 1, but exposure times were doubled—8 hr dark then 2 hr light or 10 hr light.

[5] = test system: Ick trophozoite stage attached to the fish host; assay: Aquarium treatment of fish infected with Ick, microscopic examination; format: in vivo, Ichthyophthirius multifiliis; conditions: around 5 mg/L in aquarium, added in darkness, at least eight hours absorption, then artificial lamps
From the text: The effectiveness of treatments of photoactive dyes on parasite control in a particular fish population can be determined by those skilled in the art by monitoring the general behavior of the fish (swimming, feeding, etc.) and the appearance of the parasite by microscopic examination. For example, live Ick trophozoites may be monitored using image analysis microscopy using a Image-Pro Plus V. 4.0.0.13, available from Media Cybernetics, L.P.
In one embodiment of the invention, the photoactive dye, Phloxine B, is added as a dry powder to an aquarium containing fish infected with Ick. The Phloxine B is added to achieve a final concentration of around 5 mg/L. The Phloxine B is added to the aquarium in darkness and at least eight hours of absorption is allowed before photoactivation. Photoactivation is achieved by exposing the Ick infected fish to light from artificial lamps. […] Although this particular embodiment is performed in a laboratory setting, those skilled in the art will understand that the teachings can be adapted to a commercial operation without undue experimentation.

rat = conditions: cited from earlier work
dog = conditions: cited from earlier work
mouse = conditions: cited from earlier work
humans = conditions: according to the FDA (1982); cited from earlier work
[6] = cited from earlier work
[7] = exposure to sunlight; cited from earlier work

O=C([O-])c1c(Cl)c(Cl)c(Cl)c(Cl)c1-c1c2cc(Br)c(=O)c(Br)c-2oc2c(Br)c([O-])c(Br)cc12.[Na+].[Na+] [Phloxine B, 2′, 4′, 5′ 7′-tetrabromo-4,5,6,7-tetrachlorofluorescein, disodium salt]
Percent mortality ([1]; 1 ppm, 1 dose, ambient light 5 hr): No effect
Percent mortality ([1]; 1 ppm, 2 doses, ambient light 5 hr per dose): No effect
Percent mortality ([1]; 10 ppm, 1 dose, ambient light 5 hr): No effect
Percent mortality ([1]; 10 ppm, 2 doses, ambient light 5 hr per dose): No effect
Percent mortality ([1]; 100 ppm, 1 dose, ambient light 5 hr): 20% Mortality
Percent mortality ([1]; 100 ppm, 2 doses, ambient light 5 hr per dose): 80% Mortality
Percent mortality ([1]; 1000 ppm, 1 dose, ambient light 5 hr): 80% Mortality
Percent mortality ([1]; 1000 ppm, 2 doses, ambient light 5 hr per dose): 100% Mortality
Uptake of the dye by free-swimming and encysted organisms ([1]; observation from Examples 1-3): taken up both free-swimming and encysted organisms
Percent mortality ([2]; 1 ppm, 1 dose, dark 4 hr then ambient light 1 hr): No effect
Percent mortality ([2]; 1 ppm, 2 doses, dark 4 hr then ambient light 1 hr per dose): No effect
Percent mortality ([2]; 10 ppm, 1 dose, dark 4 hr then ambient light 1 hr): No effect
Percent mortality ([2]; 10 ppm, 2 doses, dark 4 hr then ambient light 1 hr per dose): No effect
Percent mortality ([2]; 100 ppm, 1 dose, dark 4 hr then ambient light 1 hr): No effect
Percent mortality ([2]; 100 ppm, 2 doses, dark 4 hr then ambient light 1 hr per dose): 10% Mortality
Percent mortality ([2]; 1000 ppm, 1 dose, dark 4 hr then ambient light 1 hr): 40% Mortality
Percent mortality ([2]; 1000 ppm, 2 doses, dark 4 hr then ambient light 1 hr per dose): 95% Mortality
Percent mortality (Ick [3]; 1 ppm): No effect
Percent mortality (Ick [3]; 10 ppm, 1 dose): No effect
Percent mortality (Ick [3]; 100 ppm, 1 dose): 50% Mortality
Percent mortality (Ick [3]; 1000 ppm, 1 dose): 100% Mortality
Effect of exposure time on effectiveness of the dye (Ick [4]): longer exposure time increased the effectiveness
Effectiveness against trophozoite stage attached to the fish host [5]: effective against the formerly invulnerable trophozoite stage
LD50 (rat): 8400 mg/kg
LD50 (dog): > 4600 mg/kg
LD50 (mouse): 310 mg/kg
Relatively non-toxic ingested amount (humans): ≤ 1.25 mg/kg body weight
Water solubility [6]: greater than 120 mg/l
Time to degradation and detoxification [7]: < 1 h
